Each block holds one molecule with its values, some of them ahead of it. The source made the active and inactive calls. The calls are words filed in the database; no cut-off is given here.
Experiments:
Histamine H3 receptor [1] = target: T1, Histamine H3 receptor (Homo sapiens, UniProt Q9Y5N1); test: Displacement of [125I]-iodoproxyfan from human recombinant histamine H3 receptor expressed in human SK-N-MC cells after 1 hr by scintillation counting; type: cell-based
Histamine H3 receptor [2] = target: T1, Histamine H3 receptor; test: Antagonist activity at human histamine H3 receptor expressed in human SK-N-MC cells assessed as inhibition of forskolin-induced cAMP accumulation after 6 hrs; type: functional, cell-based; conditions: read-out: pA2 (converted)
Histamine H3 receptor [3] = target: T2, Histamine H3 receptor (Rattus norvegicus, UniProt Q9QYN8); test: Antagonist activity at rat histamine H3 receptor expressed in human SK-N-MC cells assessed as inhibition of forskolin-induced cAMP accumulation after 6 hrs; type: functional, cell-based; conditions: read-out: pA2 (converted)
T2 sequence (Q9QYN8 whole entry): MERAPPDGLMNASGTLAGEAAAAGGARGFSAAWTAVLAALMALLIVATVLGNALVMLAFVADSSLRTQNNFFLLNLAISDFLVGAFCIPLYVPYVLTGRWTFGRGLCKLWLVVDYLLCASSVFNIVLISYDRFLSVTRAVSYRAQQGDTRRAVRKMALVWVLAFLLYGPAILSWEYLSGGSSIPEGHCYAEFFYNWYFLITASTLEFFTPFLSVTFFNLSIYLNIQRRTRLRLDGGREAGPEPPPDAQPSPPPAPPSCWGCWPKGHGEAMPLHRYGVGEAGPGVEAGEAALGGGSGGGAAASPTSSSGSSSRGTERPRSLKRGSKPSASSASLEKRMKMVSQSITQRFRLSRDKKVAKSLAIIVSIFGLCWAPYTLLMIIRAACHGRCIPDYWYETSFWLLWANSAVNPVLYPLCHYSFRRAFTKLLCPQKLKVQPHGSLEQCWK

[4] = Metabolic stability in rat liver microsomes assessed as compound remaining after 30 mins; type: ADME, Microsome; conditions: read-out: Stability
[5] = Metabolic stability in human liver microsomes assessed as compound remaining after 30 mins; type: ADME, Microsome; conditions: read-out: Stability
[6] = Drug level in Wistar rat brain at 10 mg/kg, po after 1 hr; type: ADME, organism-based; parameters: dose 10 mg/kg, route oral; conditions: read-out: Drug uptake
[7] = Plasma concentration in Wistar rat at 10 mg/kg, po after 1 hr; type: ADME, organism-based; parameters: dose 10 mg/kg, route oral; conditions: read-out: Drug uptake
Histamine H3 receptor [8] = target: T2, Histamine H3 receptor; test: Binding affinity to histamine H3 receptor in rat brain; type: tissue-based
Rattus norvegicus [9] = test: Ex vivo receptor occupancy of histamine H3 receptor in Wistar rat brain at 10 mg/kg, po after 1 hr by autoradiography; type: functional
[10] = Clearance in Sprague-Dawley rat at 1 mg/kg, iv and 10 mg/kg, po; type: ADME, organism-based; conditions: in vivo
[11] = Volume of distribution at steady state in Sprague-Dawley rat at 1 mg/kg, iv and 10 mg/kg, po; type: ADME, organism-based; conditions: in vivo, read-out: Vdss
[12] = Half life in Sprague-Dawley rat at 1 mg/kg, iv and 10 mg/kg, po; type: ADME, organism-based; conditions: in vivo
[13] = Bioavailability in Sprague-Dawley rat at 1 mg/kg, iv and 10 mg/kg, po; type: ADME, organism-based; conditions: in vivo
[14] = Clearance in Beagle dog at 1 mg/kg, iv and 5 mg/kg, po; type: ADME, organism-based, Canis lupus familiaris; conditions: in vivo
[15] = Volume of distribution at steady state in Beagle dog at 1 mg/kg, iv and 5 mg/kg, po; type: ADME, organism-based, Canis lupus familiaris; conditions: in vivo, read-out: Vdss
[16] = Half life in Beagle dog at 1 mg/kg, iv and 5 mg/kg, po; type: ADME, organism-based, Canis lupus familiaris; conditions: in vivo
[17] = Bioavailability in Beagle dog at 1 mg/kg, iv and 5 mg/kg, po; type: ADME, organism-based, Canis lupus familiaris; conditions: in vivo
[18] = Clearance in BALB/c mouse at 1 mg/kg, iv and 10 mg/kg, po; type: ADME, organism-based; conditions: in vivo
[19] = Volume of distribution at steady state in BALB/c mouse at 1 mg/kg, iv and 10 mg/kg, po; type: ADME, organism-based; conditions: in vivo, read-out: Vdss
[20] = Half life in BALB/c mouse at 1 mg/kg, iv and 10 mg/kg, po; type: ADME, organism-based; conditions: in vivo
[21] = Bioavailability in BALB/c mouse at 1 mg/kg, iv and 10 mg/kg, po; type: ADME, organism-based; conditions: in vivo
[22] = target: T3, Voltage-gated inwardly rectifying potassium channel KCNH2 (Homo sapiens, UniProt Q12809); test: Displacement of radiolabeled astemizole from human ERG
T3 sequence (Q12809 whole entry): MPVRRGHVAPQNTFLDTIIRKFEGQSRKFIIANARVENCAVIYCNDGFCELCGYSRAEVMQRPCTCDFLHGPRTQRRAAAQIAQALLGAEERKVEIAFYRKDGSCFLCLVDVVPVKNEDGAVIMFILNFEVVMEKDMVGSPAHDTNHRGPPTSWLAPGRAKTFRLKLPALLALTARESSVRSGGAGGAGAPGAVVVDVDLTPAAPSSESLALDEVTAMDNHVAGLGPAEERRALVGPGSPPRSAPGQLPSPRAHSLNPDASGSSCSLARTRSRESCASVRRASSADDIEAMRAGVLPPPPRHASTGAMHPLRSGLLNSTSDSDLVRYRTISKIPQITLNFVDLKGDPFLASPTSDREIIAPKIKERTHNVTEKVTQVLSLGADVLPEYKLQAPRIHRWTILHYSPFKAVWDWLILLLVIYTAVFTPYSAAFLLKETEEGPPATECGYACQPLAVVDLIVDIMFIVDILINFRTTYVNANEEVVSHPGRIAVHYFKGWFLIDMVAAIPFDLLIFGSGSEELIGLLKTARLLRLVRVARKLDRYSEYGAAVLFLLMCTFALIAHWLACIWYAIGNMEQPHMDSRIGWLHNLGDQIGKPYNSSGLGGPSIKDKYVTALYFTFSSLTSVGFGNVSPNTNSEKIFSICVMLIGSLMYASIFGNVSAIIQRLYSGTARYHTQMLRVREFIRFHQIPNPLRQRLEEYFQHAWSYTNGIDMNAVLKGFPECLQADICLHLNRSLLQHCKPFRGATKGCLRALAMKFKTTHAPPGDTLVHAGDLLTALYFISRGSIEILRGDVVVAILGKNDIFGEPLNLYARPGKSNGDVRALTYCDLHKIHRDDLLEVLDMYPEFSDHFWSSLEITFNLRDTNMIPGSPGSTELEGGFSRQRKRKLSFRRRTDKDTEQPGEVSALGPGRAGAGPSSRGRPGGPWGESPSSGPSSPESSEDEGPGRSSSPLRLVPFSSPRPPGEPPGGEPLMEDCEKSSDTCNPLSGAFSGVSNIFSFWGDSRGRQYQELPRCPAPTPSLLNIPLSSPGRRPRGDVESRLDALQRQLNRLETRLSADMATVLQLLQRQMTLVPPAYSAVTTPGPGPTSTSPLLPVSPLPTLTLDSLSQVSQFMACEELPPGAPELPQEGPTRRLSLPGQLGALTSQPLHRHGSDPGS

hERG (KCNH2) = hERG (KCNH2) (Homo sapiens, UniProt Q12809); test: Displacement of radiolabeled astemizole from human ERG at 10 uM; conditions: probe radiolabeled astemizole
hERG (KCNH2), sequence (Q12809 whole entry): as above

[23] = target: T3, Voltage-gated inwardly rectifying potassium channel KCNH2; test: Inhibition of human ERG by patch clamp technique
[24] = Permeability from apical to basolateral side of human Caco-2 cells; type: ADME, cell-based; conditions: read-out: permeability
[25] = Permeability from basolateral to apical side of human Caco-2 cells; type: ADME, cell-based; conditions: read-out: permeability
[26] = Solubility in simulated gastric fluid; type: physicochemical
[27] = Solubility in water; type: physicochemical
Cytochrome P450 3A4 = Cytochrome P450 3A4 (Homo sapiens, UniProt P08684); test: Inhibition of CYP3A4 at 10 uM; type: ADME
Cytochrome P450 3A4, sequence (P08684 whole entry): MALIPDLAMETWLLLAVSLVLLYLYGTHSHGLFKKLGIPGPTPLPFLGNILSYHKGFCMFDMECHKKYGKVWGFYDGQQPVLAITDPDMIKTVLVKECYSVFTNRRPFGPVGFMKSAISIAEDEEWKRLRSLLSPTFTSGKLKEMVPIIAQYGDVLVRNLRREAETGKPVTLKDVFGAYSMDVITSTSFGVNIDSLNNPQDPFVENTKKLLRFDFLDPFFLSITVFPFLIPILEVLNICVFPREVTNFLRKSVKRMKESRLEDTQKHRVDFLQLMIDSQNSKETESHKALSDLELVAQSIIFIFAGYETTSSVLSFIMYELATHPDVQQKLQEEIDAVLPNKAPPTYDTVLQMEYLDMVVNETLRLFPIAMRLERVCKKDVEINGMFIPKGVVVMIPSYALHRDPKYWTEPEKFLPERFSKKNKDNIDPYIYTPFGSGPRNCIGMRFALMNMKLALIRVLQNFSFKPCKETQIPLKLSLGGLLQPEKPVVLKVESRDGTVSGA

Cytochrome P450 2D6 = Cytochrome P450 2D6 (Homo sapiens, UniProt P10635); test: Inhibition of CYP2D6 at 10 uM; type: ADME
Cytochrome P450 2D6, sequence (P10635 whole entry): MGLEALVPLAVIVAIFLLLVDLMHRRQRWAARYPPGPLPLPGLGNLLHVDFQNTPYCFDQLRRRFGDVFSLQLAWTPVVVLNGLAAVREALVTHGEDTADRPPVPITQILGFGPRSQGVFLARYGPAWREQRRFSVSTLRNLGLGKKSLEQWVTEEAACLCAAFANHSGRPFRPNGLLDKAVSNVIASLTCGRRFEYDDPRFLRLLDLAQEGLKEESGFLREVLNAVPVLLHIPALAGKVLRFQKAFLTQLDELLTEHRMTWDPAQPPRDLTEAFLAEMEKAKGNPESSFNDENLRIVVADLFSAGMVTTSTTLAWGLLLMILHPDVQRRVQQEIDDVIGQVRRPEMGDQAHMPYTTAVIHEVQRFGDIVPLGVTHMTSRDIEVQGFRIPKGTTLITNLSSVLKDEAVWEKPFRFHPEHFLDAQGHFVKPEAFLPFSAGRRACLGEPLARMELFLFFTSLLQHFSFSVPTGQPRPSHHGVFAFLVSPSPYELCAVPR

Cytochrome P450 2C9 = Cytochrome P450 2C9 (Homo sapiens, UniProt P11712); test: Inhibition of CYP2C9 at 10 uM; type: ADME
Cytochrome P450 2C9, sequence (P11712 whole entry): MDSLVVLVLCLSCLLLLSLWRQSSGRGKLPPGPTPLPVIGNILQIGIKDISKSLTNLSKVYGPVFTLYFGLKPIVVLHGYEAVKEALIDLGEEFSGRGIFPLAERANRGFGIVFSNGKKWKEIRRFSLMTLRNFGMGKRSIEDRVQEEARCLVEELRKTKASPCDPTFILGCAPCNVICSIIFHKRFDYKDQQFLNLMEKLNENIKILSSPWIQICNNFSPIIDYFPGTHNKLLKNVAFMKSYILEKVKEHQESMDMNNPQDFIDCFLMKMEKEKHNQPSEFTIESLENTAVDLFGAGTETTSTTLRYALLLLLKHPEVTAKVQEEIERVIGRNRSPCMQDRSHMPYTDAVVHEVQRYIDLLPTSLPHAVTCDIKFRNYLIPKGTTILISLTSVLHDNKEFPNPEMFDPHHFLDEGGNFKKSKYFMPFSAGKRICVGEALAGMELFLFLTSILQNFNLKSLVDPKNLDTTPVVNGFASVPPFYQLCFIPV

Rattus norvegicus [28] = test: Ex vivo receptor occupancy of histamine H3 receptor in Wistar rat brain at 1 mg/kg, po after 60 mins by [3H]R-alpha-methylhistamine bingind autoradiography; type: functional
[29] = Plasma concentration in Wistar rat at 1 mg/kg, po after 60 mins; type: ADME, organism-based; parameters: dose 1 mg/kg, route oral; conditions: read-out: Drug uptake
[30] = Fraction unbound in rat plasma; type: ADME, cell-free
Rattus norvegicus [31] = test: Increase of histamine release in rat frontal cortex at 3 to 30 mg/kg, po measured up to 180 mins; type: functional, organism-based
Rattus norvegicus [32] = test: Increase of wake duration in rat at 30 mg/kg, s.c.

T1 sequence (Q9Y5N1 whole entry): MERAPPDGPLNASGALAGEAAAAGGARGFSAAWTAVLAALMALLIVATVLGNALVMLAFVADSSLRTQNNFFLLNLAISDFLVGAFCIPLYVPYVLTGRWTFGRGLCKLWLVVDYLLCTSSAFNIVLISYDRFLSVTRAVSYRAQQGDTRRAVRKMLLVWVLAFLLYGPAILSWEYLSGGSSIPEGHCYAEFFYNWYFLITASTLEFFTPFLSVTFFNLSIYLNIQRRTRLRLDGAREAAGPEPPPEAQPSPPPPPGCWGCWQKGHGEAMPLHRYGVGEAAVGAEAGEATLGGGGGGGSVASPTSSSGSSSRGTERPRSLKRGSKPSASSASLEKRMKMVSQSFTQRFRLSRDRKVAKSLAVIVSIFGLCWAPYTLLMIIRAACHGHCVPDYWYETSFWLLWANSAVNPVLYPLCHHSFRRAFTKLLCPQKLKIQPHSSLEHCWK

Ki (Histamine H3 receptor [1]): 9 µM
SMILES: O=C(c1ccc(Oc2ccc(F)cc2)nc1)N1CCCNCC1

Ki (Histamine H3 receptor [1]): 0.041 µM
SMILES: O=C(c1cc(Oc2ccccc2)ccn1)N1CCCN(C2CCC2)CC1

Ki (Histamine H3 receptor [1]): 0.0018 µM | Kb (Histamine H3 receptor [2]): 0.000407 µM | Kb (Histamine H3 receptor [3]): 0.00955 µM | remaining at 0.5 h [4]: 87% | remaining at 0.5 h [5]: 99% | concentration at 1 h [6]: 0.96 µM | concentration at 1 h [7]: 6.02 µM | Ki (Histamine H3 receptor [8]): 0.011 µM | clearance [10]: 2.46 L/h/kg | Vd [11]: 1.4 L/kg | half-life [12]: 42 min | bioavailability [13]: 89% | clearance [14]: 1.26 L/h/kg | Vd [15]: 1.6 L/kg | half-life [16]: 54 min | bioavailability [17]: 29% | clearance [18]: 5.82 L/h/kg | Vd [19]: 4.4 L/kg | half-life [20]: 48 min | bioavailability [21]: 21% | Papp A→B [24]: 770 nm/s | Papp B→A [25]: 250 nm/s | solubility [26]: > 1 mg/mL | solubility [27]: > 100 mg/mL | Activity (Cytochrome P450 3A4): Not Active | Activity (Cytochrome P450 2D6): Not Active | Activity (Cytochrome P450 2C9): Not Active | concentration at 1 h [29]: 0.16 µg/mL | fraction unbound [30]: 0.79
SMILES: N#Cc1cccc(Oc2ccc(C(=O)N3CCCN(C4CCC4)CC3)cn2)c1
Activity (Rattus norvegicus [9]): 87% | IC50 [22]: > 10 µM | inhibition at 10 µM (hERG (KCNH2)): 23% | IC50 [23]: > 10 µM | Activity (Rattus norvegicus [28]): 90% | Activity (Rattus norvegicus [31]): Active | Activity (Rattus norvegicus [32]): Active

Ki (Histamine H3 receptor [1]): 0.04 µM
SMILES: O=C(c1ccc(Oc2ccccc2Cl)nc1)N1CCN(C2CCCC2)CC1

Ki (Histamine H3 receptor [1]): 0.025 µM | Kb (Histamine H3 receptor [2]): 0.00158 µM
SMILES: O=C(c1ccc(Oc2ccc(F)cc2)nc1)N1CCCN(C2CC2)CC1

Ki (Histamine H3 receptor [1]): 0.0057 µM
SMILES: O=C(c1cc(Oc2ccc(F)cc2)ccn1)N1CCCN(C2CCC2)CC1

Ki (Histamine H3 receptor [1]): 0.0015 µM | Kb (Histamine H3 receptor [2]): 0.000309 µM
SMILES: CC(C)N1CCCN(C(=O)c2ccc(Oc3ccc(Cl)c(Cl)c3)cn2)CC1

Ki (Histamine H3 receptor [1]): 0.011 µM
SMILES: O=C(c1cncc(Oc2ccccc2)c1)N1CCCN(C2CCC2)CC1

Ki (Histamine H3 receptor [1]): 0.0046 µM | remaining at 0.5 h [4]: 7% | remaining at 0.5 h [5]: 82% | concentration at 1 h [6]: 0.12 µM | concentration at 1 h [7]: 0.03 µM
SMILES: O=C(c1ccc(Sc2ccc(F)cc2)cn1)N1CCCN(C2CCC2)CC1

More lines, now with the values behind:

SMILES: O=C(c1ccc(Oc2ccccc2)nc1)N1CCCN(C2CCC2)CC1
Ki (Histamine H3 receptor [1]): 0.0044 µM | Kb (Histamine H3 receptor [2]): 0.000269 µM | Kb (Histamine H3 receptor [3]): 0.00372 µM | remaining at 0.5 h [4]: 90% | remaining at 0.5 h [5]: 99% | concentration at 1 h [6]: 0.3 µM | concentration at 1 h [7]: 0.21 µM | Ki (Histamine H3 receptor [8]): 0.015 µM

SMILES: O=C(c1ccc(Sc2ccc(F)cc2)nc1)N1CCCN(C2CCC2)CC1
Ki (Histamine H3 receptor [1]): 0.029 µM

SMILES: CC(C)N1CCCN(C(=O)c2ccc(Oc3ccc(Cl)c(Cl)c3)nc2)CC1
Ki (Histamine H3 receptor [1]): 0.018 µM

SMILES: CC(C)N1CCN(C(=O)c2ccc(Oc3ccc(Cl)c(Cl)c3)nc2)CC1
Ki (Histamine H3 receptor [1]): 0.078 µM

SMILES: O=C(c1ccc(Oc2ccc(Cl)cc2)nc1)N1CCCN(C2CC2)CC1
Ki (Histamine H3 receptor [1]): 0.013 µM

SMILES: O=C(c1ccc(Sc2ccccc2)nc1)N1CCCN(C2CCC2)CC1
Ki (Histamine H3 receptor [1]): 0.0023 µM

SMILES: CC(C)N1CCN(C(=O)c2ccc(Oc3ccc(F)cc3)nc2)CC1
Ki (Histamine H3 receptor [1]): 0.079 µM

SMILES: CSc1ccc(Oc2ccc(C(=O)N3CCN(C(C)C)CC3)cn2)cc1
Ki (Histamine H3 receptor [1]): 0.23 µM

SMILES: O=C(c1ccc(Sc2ccccc2)cn1)N1CCCN(C2CCC2)CC1
Ki (Histamine H3 receptor [1]): 0.0037 µM

SMILES: CC(C)N1CCN(C(=O)c2ccc(Oc3cccc(Cl)c3)nc2)CC1
Ki (Histamine H3 receptor [1]): 0.1 µM

SMILES: CC(C)N1CCN(C(=O)c2ccc(Oc3ccccc3Cl)nc2)CC1
Ki (Histamine H3 receptor [1]): 0.031 µM

SMILES: O=C(c1ccc(Oc2cccc(Cl)c2)nc1)N1CCCN(C2CC2)CC1
Ki (Histamine H3 receptor [1]): 0.017 µM | Kb (Histamine H3 receptor [3]): 0.0115 µM | remaining at 0.5 h [4]: 41% | remaining at 0.5 h [5]: 70% | concentration at 1 h [6]: 0.3 µM | concentration at 1 h [7]: 0.31 µM | Ki (Histamine H3 receptor [8]): 0.075 µM

SMILES: CC(C)N1CCN(C(=O)c2ccc(Oc3ccc(Cl)cc3)nc2)CC1
Ki (Histamine H3 receptor [1]): 0.073 µM

SMILES: CC(C)N1CCCN(C(=O)c2cccc(Oc3ccc(Cl)c(Cl)c3)n2)CC1
Ki (Histamine H3 receptor [1]): 0.43 µM
